pIC50: −log10 of the molar value.

The first experiment addresses T1, HIV-integrase (Human immunodeficiency virus type 1 group M subtype B, UniProt P12497).
T1 construct: Recombinant integrase (0.26 ng) was incubated with the beads
As to the kind of experiment: HIV-Integrase Inhibition Activity (SPA bead integration assay with P33 labeled target DNA). It counts as biochemical. Particulars: in vitro activity, recombinant integrase, class symbols. The procedure, abridged: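 Biotinylated substrate DNA on streptavidin SPA beads loaded with recombinant integrase (90 min, 37° C), washed, then inhibitor plus 0.1 fmol P33-labeled target DNA added. Reaction stopped with 10 mM EDTA; integration measured as CPM by scintillation, giving IC50 ranks.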
In the case of `CC(=O)N[C@H]1c2nc(C(=O)NCc3ccc(F)cc3)c(O)c(=O)n2C[C@H]2CC[C@]1(C)C2(C)C` [Example 184, (7S,10R,11R)-11-(Acetylamino)-N-(4-fluorobenzyl)-3-hydroxy-10,12,12-trimethyl-4-oxo-6,7,8,9,10,11-hexahydro-4H-7,10-methanopyrimido[1,2-a]azocine-2-carboxamide], the pIC50 is 7.00 to 8.00.

The experiment is the same for the next values; noted with them: recombinant integrase, class symbols; read-out: in vitro activity.
For `Cn1nccc1C(=O)NC12CCC(CC1)Cn1c2nc(C(=O)NCc2ccc(F)cc2)c(O)c1=O` [Example 247, 7,10-Ethanopyrimido[1,2-a]azepine-2-carboxamide, N-[(4-fluorophenyl)methyl]-4,6,7,8,9,10-hexahydro-3-hydroxy-10-[[(1-methyl-1H-pyrazol-5-yl)carbonyl]amino]-4-oxo-], the pIC50 was over 8.00.

For `CN(C)C(=O)C(=O)NC12CCC(CC1)Cn1c2nc(C(=O)NCc2ccc(Cl)cc2)c(O)c1=O` [Example 374], the pIC50 was over 8.00.

Take `O=C(NC12CCC(CC1)Cn1c2nc(C(=O)NCc2ccc(F)cc2)c(O)c1=O)C(=O)N1CCC(O)CC1` [Example 63, N-(4-Fluorobenzyl)-3-hydroxy-10-(((4-hydroxy-1-piperidinyl)(oxo)acetyl)amino)-4-oxo-4,6,7,8,9,10-hexahydro-7,10-ethanopyrimido[1,2-a]azepine-2-carboxamide]: the pIC50 is over 8.00.

In the case of `CN(C)C(=O)C(=O)NC12CCC(CC1)Cn1c2nc(C(=O)NCCc2ccc(S(N)(=O)=O)cc2)c(O)c1=O` [Example 351], the pIC50 is under 7.00.

On to `CC(=O)NC12CCC(CC1)Cn1c2nc(C(=O)NCc2ccc(F)cc2)c(O)c1=O` [Example 20, 10-(Acetylamino)-N-(4-fluorobenzyl)-3-hydroxy-4-oxo-4,6,7,8,9,10-hexahydro-7,10-ethanopyrimido[1,2-a]azepine-2-carboxamide], for which the pIC50 was over 8.00.

Consider `Cc1cc(CNC(=O)c2nc3n(c(=O)c2O)CC2CCC3(NC(=O)[C@@H]3CCN3S(C)(=O)=O)CC2)ccc1F` [Example 276, 7,10-Ethanopyrimido[1,2-a]azepine-2-carboxamide, N-[(4-fluoro-3-methylphenyl)methyl]-4,6,7,8,9,10-hexahydro-3-hydroxy-10-[[[(2S)-1-(methylsulfonyl)-2-azetidinyl]carbonyl]amino]-4-oxo-], for which the pIC50 is over 8.00.

For `O=C(NC12CCC(CC1)Cn1c2nc(C(=O)NCc2ccc(F)cc2)c(O)c1=O)OCc1ccccc1` [Example 18, Benzyl (2-((4-fluorobenzyl)carbamoyl)-3-hydroxy-4-oxo-6,7,8,9-tetrahydro-7,10-ethanopyrimido[1,2-a]azepin-10(4H)-yl)carbamate], the pIC50 was over 8.00.

Turning to `CN(C)C(=O)C(=O)NC12CCC(CC1)Cn1c2nc(C(=O)NCc2ccccc2OC(F)(F)F)c(O)c1=O` [Example 386], the pIC50 is over 8.00.

`O=C(NC12CCC(CCn3c1nc(C(=O)NCc1ccc(F)cc1)c(O)c3=O)C2)C(=O)N1CCCC1` (stereo not shown) [Example 200, 8,11-Methano-4H-pyrimido[1,2-a]azocine-2-carboxamide, 11-[[1,2-dioxo-2-(1-pyrrolidinyl)ethyl]amino]-N-[(4-fluorophenyl)methyl]-6,7,8,9,10,11-hexahydro-3-hydroxy-4-oxo]: the pIC50 was over 8.00.

Turning to `Cc1c(F)cc(Br)c(CNC(=O)c2nc3n(c(=O)c2O)CC2CCC3(N(C)C(=O)C(=O)N(C)C)CC2)c1Br` [Example 162, N-(2-((2,6-Dibromo-4-fluoro-3-methylbenzyl)carbamoyl)-3-hydroxy-4-oxo-6,7,8,9-tetrahydro-7,10-ethanopyrimido[1,2-a]azepin-10(4H)-yl)-N,N′,N′-trimethylethanediamide], the pIC50 is over 8.00.

For `CO[C@H]1C[C@@H](C(=O)NC23CCC(CC2)Cn2c3nc(C(=O)NCc3ccc(F)cc3)c(O)c2=O)N(S(C)(=O)=O)C1` [Example 272, 7,10-Ethanopyrimido[1,2-a]azepine-2-carboxamide, N-[(4-fluorophenyl)methyl]-4,6,7,8,9,10-hexahydro-3-hydroxy-10-[[[(2S,4S)-4-methoxy-1-(methylsulfonyl)-2-pyrrolidinyl]carbonyl]amino]-4-oxo-], the pIC50 was over 8.00.

For the compound `O=C(NC12CCC(CC1)Cn1c2nc(C(=O)NCc2ccc(F)cc2)c(O)c1=O)C(=O)N1CCN(CCOCCO)CC1` [Example 75, N-(4-Fluorobenzyl)-3-hydroxy-10-(((4-(2-(2-hydroxyethoxy)ethyl)-1-piperazinyl)(oxo)acetyl)amino)-4-oxo-4,6,7,8,9,10-hexahydro-7,10-ethanopyrimido[1,2-a]azepine-2-carboxamide], the pIC50 is over 8.00.

As to `CN(C)C(=O)C(=O)NC12CCC(CC1)Cn1c2nc(C(=O)NCc2ccc(F)c(C(F)(F)F)c2)c(O)c1=O` [Example 119, N′-(2-((4-Fluoro-3-(trifluoromethyl)benzyl)carbamoyl)-3-hydroxy-4-oxo-6,7,8,9-tetrahydro-7,10-ethanopyrimido[1,2-a]azepin-10(4H)-yl)-N,N-dimethylethanediamide], the pIC50 was over 8.00.

Regarding `CN(C)C(=O)C(=O)NC12CCC(CC1)Cn1c2nc(C(=O)NCc2cccc(Cl)c2)c(O)c1=O` [Example 380], the pIC50 is over 8.00.

As to `CN(C)C(=O)C(=O)NC12CCC(CC1)Cn1c2nc(C(=O)NCCC(C)(C)C)c(O)c1=O` [Example 348], the pIC50 was under 7.00.

`O=C(NC12CCC(CC1)Cn1c2nc(C(=O)NCc2ccc(F)cc2)c(O)c1=O)C(=O)N1CCC[C@@H]1CO` [Example 87, N-(4-Fluorobenzyl)-3-hydroxy-10-((((2R)-2-(hydroxymethyl)-1-pyrrolidinyl)(oxo)acetyl)amino)-4-oxo-4,6,7,8,9,10-hexahydro-7,10-ethanopyrimido[1,2-a]azepine-2-carboxamide]: the pIC50 is over 8.00.

With `Cc1cc(F)ccc1CNC(=O)c1nc2n(c(=O)c1O)CC1CCC2(NC(=O)C(=O)N(C)C)CC1` [Example 120, N′-(2-((4-Fluoro-2-methylbenzyl)carbamoyl)-3-hydroxy-4-oxo-6,7,8,9-tetrahydro-7,10-ethanopyrimido[1,2-a]azepin-10(4H)-yl)-N,N-dimethylethanediamide], the pIC50 was over 8.00.

Consider `O=C(NC12CCC(CC1)Cn1c2nc(C(=O)NCc2ccc(F)cc2)c(O)c1=O)C(=O)N1CCN(C(=O)c2cccs2)CC1` [Example 142, N-(4-Fluorobenzyl)-3-hydroxy-4-oxo-10-((oxo(4-(2-thiophenylcarbonyl)-1-piperazinyl)acetyl)amino)-4,6,7,8,9,10-hexahydro-7,10-ethanopyrimido[1,2-a]azepine-2-carboxamide], for which the pIC50 was over 8.00.

Regarding `CN(C)C(=O)C(=O)NC12CCC(CC1)Cn1c2nc(C(=O)NCCCc2ccc(F)cc2)c(O)c1=O` [Example 130, N′-(2-((3-(4-Fluorophenyl)propyl)carbamoyl)-3-hydroxy-4-oxo-6,7,8,9-tetrahydro-7,10-ethanopyrimido[1,2-a]azepin-10(4H)-yl)-N,N-dimethylethanediamide], the pIC50 was over 8.00.

Take `O=C(NCc1ccc(F)cc1)c1nc2n(c(=O)c1O)CC1CCC2(Nc2ncc[nH]2)CC1` [Example 334, 7,10-Ethanopyrimido[1,2-a]azepine-2-carboxamide, N-[(4-fluorophenyl)methyl]-4,6,7,8,9,10-hexahydro-3-hydroxy-10-(1H-imidazol-2-ylamino)-4-oxo-]: the pIC50 was over 8.00.

As for `O=C(NC12CCC(CC1)Cn1c2nc(C(=O)NCc2ccc(F)cc2)c(O)c1=O)C(=O)N1CCNCC1` [Example 62, N-(4-Fluorobenzyl)-3-hydroxy-4-oxo-10-((oxo(1-piperazinyl)acetyl)amino)-4,6,7,8,9,10-hexahydro-7,10-ethanopyrimido[1,2-a]azepine-2-carboxamide], the pIC50 is over 8.00.

Regarding `O=C(Nc1ccccn1)NC12CCC(CC1)Cn1c2nc(C(=O)NCc2ccc(F)cc2)c(O)c1=O` [Example 324, 7,10-Ethanopyrimido[1,2-a]azepine-2-carboxamide, N-[(4-fluorophenyl)methyl]-4,6,7,8,9,10-hexahydro-3-hydroxy-4-oxo-10-[[(2-pyridinylamino)carbonyl]amino]-], the pIC50 was over 8.00.

Turning to `Cc1cc(CNC(=O)c2nc3n(c(=O)c2O)CC2CCC3(NC(=O)[C@@H]3CC(F)(F)CN3S(C)(=O)=O)CC2)ccc1F` [Example 290, 7,10-Ethanopyrimido[1,2-a]azepine-2-carboxamide, 10-[[[(2S)-4,4-difluoro-1-(methylsulfonyl)-2-pyrrolidinyl]carbonyl]amino]-N-[(4-fluoro-3-methylphenyl)methyl]-4,6,7,8,9,10-hexahydro-3-hydroxy-4-oxo-], the pIC50 was over 8.00.

In the case of `CN(C)C(=O)C(=O)NC12CCC(CCn3c1nc(C(=O)NCc1ccc(F)c(F)c1)c(O)c3=O)C2` (stereo not shown) [Example 214, Ethanediamide, N′-[2-[[[(3,4-difluorophenyl)methyl]amino]carbonyl]-7,8,9,10-tetrahydro-3-hydroxy-4-oxo-8,11-methano-4H-pyrimido[1,2-a]azocin-11(6H)-yl]-N,N-dimethyl], the pIC50 was over 8.00.

Turning to `Cc1cc(CNC(=O)c2nc3n(c(=O)c2O)CC2CCC3(NC(=O)C(C)(C)n3cccn3)CC2)ccc1F` [Example 281, 7,10-Ethanopyrimido[1,2-a]azepine-2-carboxamide, N-[(4-fluoro-3-methylphenyl)methyl]-4,6,7,8,9,10-hexahydro-3-hydroxy-10-[[2-methyl-1-oxo-2-(1H-pyrazol-1-yl)propyl]amino]-4-oxo-], the pIC50 is over 8.00.

As for `CN(C(=O)OCc1ccccc1)C1c2nc(C(=O)NCc3ccc(F)cc3)c(O)c(=O)n2CC2CCC1C2` (stereo not shown) [Example 8], the pIC50 is over 8.00.

As to `CN(C)C(=O)C(=O)NC12CCC(CC1)Cn1c2nc(C(=O)NCc2ccc(F)cc2F)c(O)c1=O` [Example 114, N′-(2-((2,4-Difluorobenzyl)carbamoyl)-3-hydroxy-4-oxo-6,7,8,9-tetrahydro-7,10-ethanopyrimido[1,2-a]azepin-10(4H)-yl)-N,N-dimethylethanediamide], the pIC50 is over 8.00.

For the origin of these results see US8129398B2 (priority 2008, dated 2012).
